US20240199558A1, “2,4,6-TRISUBSTITUTED 1,3,5-TRIAZINES AS MODULATORS OF CX3CR1” (ASTRAZENECA AB, priority 2022, published 2024)

What was measured:
CX3CR1 [1] = target: T1, CX3CR1 (Homo sapiens (Human), UniProt P49238); test: CX3CR1-dependent cell adhesion to recombinant CX3CL1 in human whole blood under flow; type: cell-based; settings: recombinant full-length CX3CL1
Protocol: (§1) Adhesion of cells to recombinant full-length human CX3CL1 was monitored under physiological flow using a Cellix VenaFlux microfluidics platform with connected fluorescent microscope and camera, and using Vena8 Fluoro+ Biochips (Cellix) pre-coated with anti-His monoclonal antibody (25 μg/mL; R&D Systems) and His-tagged full-length CX3CL1 (15 μg/mL; R&D Systems).
CX3CR1-Dependent Cell Adhesion to Recombinant CX3CL1 in Human Whole Blood Under Flow
Human whole blood from healthy volunteers was collected using heparin as anti-coagulant. […] Compound stocks or DMSO vehicle were added to 0.5 or 1.0 ml aliquots of blood such that the final concentration of DMSO was 0.1%, corresponding to a 1000-fold dilution of compound stock. Blood was pre-incubated with compound at room temperature for 60 minutes with gentle shaking. DiOC6 (Invitrogen, 5 μM) or Hoechst 33342 (Invitrogen, 300 μM) dye was subsequently added to fluorescently label cells and enable their detection during the flow adhesion assay. To monitor adhesion, blood was allowed to flow through the channels of a Vena8 Fluoro+ biochip at 2.25 dynes per cm^2 for 3-6 minutes prior to capturing images for quantification. Fluorescent cells adhering to the channels were counted and the mean and/or total count across five to six images in each channel were used for calculating concentration-response curves.

CX3CR1 [2] = target: T1, CX3CR1; test: hCX3CR1 [125I]-CX3CL1 displacement binding (SPA); settings: CHO-hCX3CR1 membranes, [125I]-CX3CL1, SPA beads
Protocol: hCX3CR1 [^125I]-CX3CL1 Displacement Binding (SPA)
CHO-hCX3CR1 membranes (3 μg per well) together with […] [^125I]-CX3CL1 (Perkin Elmer) and different concentrations of competitor compound were incubated together with 400 μg/well WGA coated PVT SPA beads (Perkin Elmer) in 50 mM HEPES (pH 7.4), 10 mM MgCl2, 1 mM EDTA and 0.1% Gelatin in a Greiner polystyrene flat-bottom 384-well plate. The plate was incubated for 20 h at room temperature before the radioactivity was measured using a MicroBeta Trilux reader (PerkinElmer). The DMSO concentration was held constant at 1%.

CX3CR1 [3] = target: T1, CX3CR1; test: hCX3CR1 [3H]-AZD8797 competitive binding assay (filter); settings: CHO-hCX3CR1 membranes, 2 nM [3H]-AZD8797
Summary of the method: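 Filtration radioligand displacement assay: competitor titrations compete with 2 nM [3H]-AZD8797 for membranes from CHO cells expressing hCX3CR1 (9 μg/well). Incubation was 2 h at room temperature in HEPES pH 7.4 with MgCl2, CaCl2, 0.5% BSA and 1% DMSO. Filters were washed with ice-cold high-salt (500 mM NaCl) buffer, and retained radioactivity was scintillation-counted.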

CX3CR1 [4] = target: T1, CX3CR1; test: Flow adhesion for human B-lymphocyte cell line RPMI-8226; type: cell-based; settings: RPMI-8226 cells under flow, recombinant full-length CX3CL1
Protocol: as §1
Flow Adhesion for Human B-Lymphocyte Cell Line RPMI-8226
Cells were cultured in RPMI 1640 medium with GlutaMAX and 20% FBS (HyClone, Perbio). Before each experiment, cells were centrifuged at 320 g and resuspended to 5×10^6 cells per ml in RPMI 1640 with 1% FBS. Cells were pre-incubated for 15 minutes at room temperature with CX3CR1 antagonist in an 8-step 3-fold dilution series starting at 3.3 μM. DMSO concentration was kept constant for all antagonist concentrations at 0.1%. Cells were pumped through the channels of the Vena8 Fluoro+ biochip at 0.5 dynes per cm2 for 3 m prior to capturing microscope images for quantification. Cells adhering to channels were counted and the mean values across five images in each channel were used for calculating the concentration-response curves.

T1 sequence (P49238 whole entry): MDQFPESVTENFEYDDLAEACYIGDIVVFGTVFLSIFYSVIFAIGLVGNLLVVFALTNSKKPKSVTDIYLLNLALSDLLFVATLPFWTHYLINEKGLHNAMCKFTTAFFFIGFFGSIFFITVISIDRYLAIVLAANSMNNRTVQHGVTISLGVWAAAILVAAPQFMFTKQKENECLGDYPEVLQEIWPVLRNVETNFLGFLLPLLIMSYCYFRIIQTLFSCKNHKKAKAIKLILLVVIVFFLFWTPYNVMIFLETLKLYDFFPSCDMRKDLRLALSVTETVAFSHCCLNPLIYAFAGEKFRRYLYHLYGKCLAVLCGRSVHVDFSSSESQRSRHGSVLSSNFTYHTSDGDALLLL

SMILES | IC50 (CX3CR1 [1]) | IC50 (CX3CR1 [2]) | IC50 (CX3CR1 [3]) | IC50 (CX3CR1 [4])
CC(C)C[C@H](CO)Nc1nc(C[C@@H](C)c2ccc(Cl)cn2)nc(NS(C)(=O)=O)n1 (single isomer, unassigned) [Example 150, N-(4-((R*)-2-(5-Chloropyridin-2-yl)propyl)-6-(((R)-1-hydroxy-4-methylpentan-2-yl)amino)-1,3,5-triazin-2-yl)methanesulfonamide] | 1.6 µM | 1.53 µM | 0.185 µM | –
CC(C)C[C@H](CO)Nc1nc(C[C@@H](C)c2cnc(C3CC3)nc2)nc(NS(C)(=O)=O)n1 (single isomer, unassigned) [Example 12, N-(4-((R*)-2-(2-Cyclopropylpyrimidin-5-yl)propyl)-6-(((R)-1-hydroxy-4-methylpentan-2-yl)amino)-1,3,5-triazin-2-yl)methanesulfonamide] | – | 1.86 µM | 0.176 µM | 0.255 µM
CC(C)C[C@H](CO)Nc1nc(C[C@H](C)c2ccc(Cl)cn2)nc(NS(C)(=O)=O)n1 (single isomer, unassigned) [Example 149, N-(4-((S*)-2-(5-Chloropyridin-2-yl)propyl)-6-(((R)-1-hydroxy-4-methylpentan-2-yl)amino)-1,3,5-triazin-2-yl)methanesulfonamide] | > 30 µM | > 30 µM | – | –
CC(C)C[C@H](CO)Nc1nc(C[C@@H](C)c2ccc(F)c(F)c2F)nc(NS(C)(=O)=O)n1 (single isomer, unassigned) [Example 88, N-(4-(((R)-1-Hydroxy-4-methylpentan-2-yl)amino)-6-((R*)-2-(2,3,4-trifluorophenyl)propyl)-1,3,5-triazin-2-yl)methanesulfonamide] | 0.115 µM | – | 0.032 µM | –
CC(C)C[C@H](CO)Nc1nc(C[C@@H](C)c2ccc(F)cc2)nc(NS(C)(=O)=O)n1 (single isomer, unassigned) [Example 79, N-(4-((R*)-2-(4-Fluorophenyl)propyl)-6-(((R)-1-hydroxy-4-methylpentan-2-yl)amino)-1,3,5-triazin-2-yl)methanesulfonamide] | – | 2.47 µM | 0.198 µM | 0.054 µM
COc1ccc([C@@H](C)Cc2nc(N[C@@H](CO)CC(C)C)nc(NS(C)(=O)=O)n2)cn1 (single isomer, unassigned) [Example 75, N-(4-(((R)-1-Hydroxy-4-methylpentan-2-yl)amino)-6-((S*)-2-(6-methoxypyridin-3-yl)propyl)-1,3,5-triazin-2-yl)methanesulfonamide] | – | 5.18 µM | 2.7 µM | > 3 µM
CC(C)C[C@H](CO)Nc1nc(C[C@H](C)c2cnc(C3CC3)nc2)nc(NS(C)(=O)=O)n1 (single isomer, unassigned) [Example 11, N-(4-((S*)-2-(2-Cyclopropylpyrimidin-5-yl)propyl)-6-(((R)-1-hydroxy-4-methylpentan-2-yl)amino)-1,3,5-triazin-2-yl)methanesulfonamide] | – | > 30 µM | > 10 µM | –
CC(C)C[C@H](CO)Nc1nc(C[C@H](C)c2ccnc(Cl)c2)nc(NS(C)(=O)=O)n1 (single isomer, unassigned) [Example 25, N-(4-((S*)-2-(2-Chloropyridin-4-yl)propyl)-6-(((R)-1-hydroxy-4-methylpentan-2-yl)amino)-1,3,5-triazin-2-yl)methanesulfonamide] | – | 13.5 µM | 1.35 µM | –

More lines, in order of falling IC50 (CX3CR1 [2]), values ahead:

IC50 (CX3CR1 [1]) | IC50 (CX3CR1 [2]) | IC50 (CX3CR1 [3]) | IC50 (CX3CR1 [4]) | SMILES
0.109 µM | 0.948 µM | 0.096 µM | – | CC(C)C[C@H](CO)Nc1nc(C[C@@H](C)c2ccc(F)cc2F)nc(NS(C)(=O)=O)n1 (single isomer, unassigned) [Example 6, N-(4-((R*)-2-(2,4-Difluorophenyl)propyl)-6-(((R)-1-hydroxy-4-methylpentan-2-yl)amino)-1,3,5-triazin-2-yl)methanesulfonamide]
– | 0.886 µM | 0.048 µM | 0.158 µM | COc1ccc([C@H](C)Cc2nc(N[C@@H](CO)CC(C)C)nc(NS(C)(=O)=O)n2)cn1 (single isomer, unassigned) [Example 76, N-(4-(((R)-1-Hydroxy-4-methylpentan-2-yl)amino)-6-((R*)-2-(6-methoxypyridin-3-yl)propyl)-1,3,5-triazin-2-yl)methanesulfonamide]
0.543 µM | 0.637 µM | 0.129 µM | 0.028 µM | CC(C)C[C@H](CO)Nc1nc(C[C@H](C)c2ccccc2F)nc(NS(C)(=O)=O)n1 (single isomer, unassigned) [Example 145, N-(4-((S*)-2-(2-Fluorophenyl)propyl)-6-(((R)-1-hydroxy-4-methylpentan-2-yl)amino)-1,3,5-triazin-2-yl)methanesulfonamide]
– | 0.566 µM | 0.128 µM | 0.011 µM | COc1ccc([C@@H](C)Cc2nc(N[C@@H](CO)CC(C)C)nc(NS(C)(=O)=O)n2)c(F)c1 (single isomer, unassigned) [Example 82, N-(4-((S*)-2-(2-Fluoro-4-methoxyphenyl)propyl)-6-(((R)-1-hydroxy-4-methylpentan-2-yl)amino)-1,3,5-triazin-2-yl)methanesulfonamide]
0.326 µM | 0.484 µM | 0.037 µM | 0.037 µM | CC(C)C[C@H](CO)Nc1nc(C[C@@H](C)c2ccccc2)nc(NS(C)(=O)=O)n1 (single isomer, unassigned) [Example 148, N-(4-(((R)-1-Hydroxy-4-methylpentan-2-yl)amino)-6-((R*)-2-phenylpropyl)-1,3,5-triazin-2-yl)methanesulfonamide]
3.08 µM | 0.47 µM | 0.049 µM | 0.014 µM | COc1ccc([C@H](C)Cc2nc(N[C@@H](CO)CC(C)C)nc(NS(C)(=O)=O)n2)c(F)c1 (single isomer, unassigned) [Example 81, N-(4-((R*)-2-(2-Fluoro-4-methoxyphenyl)propyl)-6-(((R)-1-hydroxy-4-methylpentan-2-yl)amino)-1,3,5-triazin-2-yl)methanesulfonamide]
– | 0.43 µM | 0.156 µM | 0.522 µM | CC(C)C[C@H](CO)Nc1nc(C[C@H](C)c2cccc(F)c2F)nc(NS(C)(=O)=O)n1 (single isomer, unassigned) [Example 143, N-(4-((S*)-2-(2,3-Difluorophenyl)propyl)-6-(((R)-1-hydroxy-4-methylpentan-2-yl)amino)-1,3,5-triazin-2-yl)methanesulfonamide]
1.29 µM | 0.424 µM | 0.156 µM | – | CC(C)C[C@H](CO)Nc1nc(C[C@H](C)c2ccc(Cl)cc2F)nc(NS(C)(=O)=O)n1 (single isomer, unassigned) [Example 83, N-(4-((S*)-2-(4-Chloro-2-fluorophenyl)propyl)-6-(((R)-1-hydroxy-4-methylpentan-2-yl)amino)-1,3,5-triazin-2-yl)methanesulfonamide]
0.233 µM | 0.18 µM | 0.023 µM | 0.011 µM | CC(C)C[C@H](CO)Nc1nc(C[C@@H](C)c2ccccc2F)nc(NS(C)(=O)=O)n1 (single isomer, unassigned) [Example 146, N-(4-((R*)-2-(2-Fluorophenyl)propyl)-6-(((R)-1-hydroxy-4-methylpentan-2-yl)amino)-1,3,5-triazin-2-yl)methanesulfonamide]
0.499 µM | 0.068 µM | 0.017 µM | – | CC(C)C[C@H](CO)Nc1nc(C[C@@H](C)c2cccc(Cl)c2F)nc(NS(C)(=O)=O)n1 (single isomer, unassigned) [Example 4, N-(4-((R*)-2-(3-Chloro-2-fluorophenyl)propyl)-6-(((R)-1-hydroxy-4-methylpentan-2-yl)amino)-1,3,5-triazin-2-yl)methanesulfonamide]
